Drawing on patent US9499495B2, “Quinazolines and azaquinazolines as dual inhibitors of RAS/RAF/MEK/ERK and PI3K/AKT/PTEN/mTOR pathways” (Asana Biosciences, LLC, priority 2013, dated 2016), this text covers IC50 for 15 compounds.

The structures appear in SMILES notation.

In one test the target is T1, B-RAFV600E (Homo sapiens, UniProt P15056, V600E).
T1 construct: purchased Millipore, USA 14-557
Put plainly: B-RAFV600E radiometric assay. It counts as biochemical. The following applies: read-out: Kinase assay B-Raf. Summed up:
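B-RAFV600E was preincubated 45 min at rt with compound in 1% DMSO. MEK-K97M (0.5 μg), 5 μM final cold ATP and [γ-32P]ATP were then added for 2 h at rt. Phosphorylated MEK was captured on P81 paper and scintillation-counted; IC50 came from a sigmoidal dose-response fit.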

The target in the next test is T2, mTOR kinase (Homo sapiens, UniProt P42345).
T2 construct: purchased Millipore, US
T2 sequence (P42345 1362-2549 limits assumed): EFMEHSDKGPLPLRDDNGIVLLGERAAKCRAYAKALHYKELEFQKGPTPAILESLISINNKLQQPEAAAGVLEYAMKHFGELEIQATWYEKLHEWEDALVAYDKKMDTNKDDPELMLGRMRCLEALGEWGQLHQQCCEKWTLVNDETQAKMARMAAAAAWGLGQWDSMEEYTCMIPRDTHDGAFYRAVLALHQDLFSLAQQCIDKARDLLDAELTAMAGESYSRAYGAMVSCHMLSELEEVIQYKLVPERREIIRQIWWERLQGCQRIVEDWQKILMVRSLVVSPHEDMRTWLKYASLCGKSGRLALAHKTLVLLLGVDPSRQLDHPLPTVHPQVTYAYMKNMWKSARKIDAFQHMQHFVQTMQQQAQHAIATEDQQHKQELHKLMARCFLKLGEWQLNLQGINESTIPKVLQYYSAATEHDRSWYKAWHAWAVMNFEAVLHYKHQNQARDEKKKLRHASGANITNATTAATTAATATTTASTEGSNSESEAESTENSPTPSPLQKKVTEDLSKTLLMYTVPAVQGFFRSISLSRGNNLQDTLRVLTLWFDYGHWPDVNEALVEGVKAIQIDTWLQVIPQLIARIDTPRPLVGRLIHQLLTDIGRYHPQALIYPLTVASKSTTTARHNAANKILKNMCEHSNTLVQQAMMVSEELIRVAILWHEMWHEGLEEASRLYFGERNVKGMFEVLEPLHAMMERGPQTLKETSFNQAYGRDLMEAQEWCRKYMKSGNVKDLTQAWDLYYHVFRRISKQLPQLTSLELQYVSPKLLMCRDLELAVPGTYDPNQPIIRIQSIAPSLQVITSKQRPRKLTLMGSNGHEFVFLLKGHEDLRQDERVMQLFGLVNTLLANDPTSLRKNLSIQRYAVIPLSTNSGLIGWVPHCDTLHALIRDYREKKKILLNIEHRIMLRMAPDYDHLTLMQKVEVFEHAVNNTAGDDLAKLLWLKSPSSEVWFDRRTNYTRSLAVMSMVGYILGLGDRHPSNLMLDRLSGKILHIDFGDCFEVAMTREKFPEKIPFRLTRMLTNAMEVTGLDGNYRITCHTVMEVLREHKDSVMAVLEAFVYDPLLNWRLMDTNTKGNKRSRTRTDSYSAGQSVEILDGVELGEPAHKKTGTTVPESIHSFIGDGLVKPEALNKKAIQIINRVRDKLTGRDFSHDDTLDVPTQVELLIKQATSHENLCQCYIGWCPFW
The test is described as follows: mTOR kinase TR-FRET assay. The test is classed as biochemical. The method in brief:
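TR-FRET with ULight-p70 S6K (Thr 389) peptide (50 nM) and 20 μM ATP in 50 mM HEPES pH 7.5, 1 mM EGTA, 3 mM MnCl2; compound pre-incubated with enzyme before substrate addition, reaction at rt, EDTA-stopped. Eu anti-phospho antibody read 665/615 nm; IC50 from sigmoidal dose-response fit.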

The test system of a further test is pERK in A375 cells. The test is described as follows: In Cell Western (ICW) assay, pERK in A375 cells. The test is classed as cell-based. The note with it: Homo sapiens, A-375, 3 h treatment. As for the experimental part: Cell lines A375, A2058 and RKO obtained from the ATCC as provided above, were grown, and after attaining ˜80% confluency were trypsinized, centrifuged and resuspended in fresh media. The cells were seeded at the specified density (20,000 to 50,000) in a 96-well format black-well clear bottom plate (Corning) and incubated overnight at 37° C. in a 5% CO2 incubator. The next day, compound dilutions of test compounds were prepared in 100% DMSO followed by dilutions in respective media. Treatment of test compounds was performed for 3 h at 37° C. in 5% CO2 incubator. Following 3 h drug treatment, the conditional media was discarded and the cells were washed once with cPBS (PBS containing 0.1% magnesium chloride hexahydrate and 0.1% anhydrous calcium chloride) and fixed with 4% paraformaldehyde in cPBS for 1 h at rt. After fixing, the cells were given three washes using cPBST (cPBS containing 0.1% Triton™ X-100 reagent) and then blocked using blocking solution (5% skimmed milk powder or 5% BSA prepared in cPBST) for 2 h at rt with shaking at 300 rpm. The cells were again washed thrice with cPBST and incubated with primary antibody phospho-p44/42 MAPK(Erk1/2)(Thr202/204) antibody (Cell Signaling, Catalog # 9101L), phospho S6 ribosomal protein (Cell Signaling, Catalog #4858L), phospho AKT (Thr 308) (Cell Signaling, Catalog #9275) or phospho AKT (Ser 473) (Cell Signaling, Catalog #4060L) in specified dilutions (1:500-1:2500), prepared in respective blocking solutions, in a racker overnight at 4° C. The next day, the cells were washed with 1× Delfia® wash buffer (4×1 wash) and incubated with secondary antibody (Delfia®-Eu-N1 labeled anti-rabbit antibody; PerkinElmer, Catalog #AD0105; dilutions: 1:2000 to 1:6000 in Delfia® assay buffer (PerkinElmer, Catalog #1244-111)) for 2 h at rt in the dark at 300 rpm. The cells were then given four washes with 1× Delfia® wash buffer and incubated with Wallac Delfia® Enhancement solution (100 μL; PerkinElmer, Catalog #1244-105) for 20 min at rt in the dark at 300 rpm. The fluorescence emission was then read at 615 nm with an excitation wavelength of 340 nm using a Victor V5 Fluorometer (Perkin Elmer, US). The cells were then washed once with 1×cPBS and incubated with 100 μL of 0.5 mg/mL of Hoechst 33258 dye prepared in cPBS and read at 460 nm with 355 nm excitation, thereby evaluating the correction factor.
The % inhibition for the test compounds of formula (I) (new chemical entities (NCEs)) was calculated keeping DMSO control as 0% and the IC50 values were determined using sigmoidal dose response curve fit in GraphPad Prism® v5 software.

The test system of another test is A375 cells. The test is described as follows: XTT assay for cell viability, A375 cells. The test is classed as cell-based. The note with it: Homo sapiens, A-375, 72 h. As for the experimental part: Cell lines (A375 ATCC No. CRL-1619, A2058 ATCC No. CRL-11147 and RKO ATCC No. CRL-2577, American Type Culture Collection (ATCC), Manassas Va.) once attaining ˜80% confluency were trypsinized, centrifuged and resuspended in fresh media. Cells (1000-2000/per well) were seeded in 96-well plate and incubated over-night at 37° C. in a 5% CO2 incubator. Compound dilutions were prepared in 100% DMSO followed by dilutions in the respective media. The cells were treated with NCEs for 72 h at 37° C. in 5% CO2 incubator. After 72 h, freshly prepared XTT (1 mg/ml)/PMS (25 μM) solution was added, incubated for 2 to 3 h at 37° C. and the absorbance was measured at 450 nm using an ELISA plate reader. Keeping DMSO control as 100%, the effect of the compound to inhibit the cell proliferation was calculated and the GI50 values were determined using sigmoidal dose response curve fit in GraphPad Prism® v5 software.
(In general: Tetrazolium assays rely on reduction of a dye to a coloured formazan, in cell work by metabolically active cells.)

T1 sequence (P15056 416-766 V600E limits assumed): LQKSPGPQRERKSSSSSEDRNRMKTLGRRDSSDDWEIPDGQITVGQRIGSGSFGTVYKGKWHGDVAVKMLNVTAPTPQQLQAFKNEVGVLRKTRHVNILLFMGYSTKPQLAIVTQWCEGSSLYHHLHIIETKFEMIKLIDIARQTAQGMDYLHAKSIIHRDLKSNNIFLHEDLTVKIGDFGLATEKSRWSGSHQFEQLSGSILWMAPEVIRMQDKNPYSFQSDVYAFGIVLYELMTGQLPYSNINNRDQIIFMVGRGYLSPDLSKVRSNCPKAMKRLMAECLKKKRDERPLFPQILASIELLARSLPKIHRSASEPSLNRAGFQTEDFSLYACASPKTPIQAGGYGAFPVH

For `COc1cc(-c2c(F)ccc(NS(=O)(=O)CCCF)c2F)cc2c(N3CCOCC3)nc(-c3cnc(N)nc3)nc12` [Example 82, N-(3-(2-(2-aminopyrimidin-5-yl)-8-methoxy-4-morpholinoquinazolin-6-yl)-2,4-difIuorophenyl)-3-fluoropropane-1-sulfonamide], the IC50 on B-RAFV600E lay in the range of 1 to 100 nM; against mTOR kinase, 100 to 1000 nM; in the test with pERK in A375 cells it was 1 to 100 nM; in the test with A375 cells, 1 to 100 nM.
Consider `COc1cc(-c2cccc(NS(=O)(=O)CC(C)C)c2F)cc2c(N3CCOCC3)nc(-c3cnc(N)nc3)nc12` [Example 20, N-(3-(2-(2-aminopyrimidin-5-yl)-8-methoxy-4-morpholinoquinazolin-6-yl)-2-fluorophenyl)-2-methylpropane-1-sulfonamide], for which the IC50 at B-RAFV600E lay within 1 to 100 nM; at mTOR kinase it was 100 to 1000 nM; in the test on pERK in A375 cells, 100 to 1000 nM; in the test with A375 cells, 100 to 1000 nM.
With `COc1cc(-c2cccc(NS(=O)(=O)CCCF)c2F)cc2c(N3CCOCC3)nc(-c3cnc(N)nc3)nc12` [Example 27, N-(3-(2-(2-aminopyrimidin-5-yl)-8-methoxy-4-morpholinoquinazolin-6-yl)-2-fluorophenyl)-3-fluoropropane-1-sulfonamide], the IC50 on B-RAFV600E is 1 to 100 nM; at mTOR kinase, 100 to 1000 nM; in the test on pERK in A375 cells it was 1 to 100 nM; in the test on A375 cells, 100 to 1000 nM.
For the compound `Nc1ccc(-c2nc(N3CCOCC3)c3cc(-c4cccc(NS(=O)(=O)CCCF)c4F)ccc3n2)cn1` [Example 46, N-(3-(2-(6-aminopyridin-3-yl)-4-morpholinoquinazolin-6-yl)-2-fluorophenyl)-3-fluoropropane-1-sulfonamide], the IC50 on B-RAFV600E was 1 to 100 nM; on mTOR kinase, 100 to 1000 nM; with pERK in A375 cells it was 1 to 100 nM; in the test with A375 cells, 100 to 1000 nM.
Turning to `COc1cc(-c2c(F)ccc(NS(=O)(=O)c3c(F)cccc3F)c2F)cc2c(N3CCOCC3)nc(-c3ccc(N)nc3)nc12` [Example 77, N-(3-(2-(6-aminopyridin-3-yl)-8-methoxy-4-morpholinoquinazolin-6-yl)-2,4-difluorophenyl)-2,6-difluorobenzenesulfonamide], the IC50 lay in the range of 1 to 100 nM on B-RAFV600E, 100 to 1000 nM at mTOR kinase, 100 to 1000 nM in the test with pERK in A375 cells and 100 to 1000 nM in the test on A375 cells.
Turning to `COc1cc(-c2cccc(NS(=O)(=O)c3ccccc3F)c2F)cc2c(N3CCOCC3)nc(-c3cnc(N)nc3)nc12` [Example 47, N-(3-(2-(2-aminopyrimidin-5-yl)-8-methoxy-4-morpholinoquinazolin-6-yl)-2-fluorophenyl)-2-fluorobenzenesulfonamide], the IC50 was 1 to 100 nM on B-RAFV600E, 100 to 1000 nM at mTOR kinase, 100 to 1000 nM in the test with pERK in A375 cells and 100 to 1000 nM in the test on A375 cells.
For the compound `CCCS(=O)(=O)Nc1ccc(F)c(-c2cc(OC)c3nc(-c4cnc(N)nc4)nc(N4CCOCC4)c3c2)c1F` [Example 6, N-(3-(2-(2-aminopyrimidin-5-yl)-8-methoxy-4-morpholinoquinazolin-6-yl)-2,4-difluorophenyl)propane-1-sulfonamide], the IC50 on B-RAFV600E lay in the range of 1 to 100 nM; against mTOR kinase, 1 to 100 nM; in the test on pERK in A375 cells it was 100 to 1000 nM; in the test with A375 cells, 100 to 1000 nM.
Consider `COc1cc(-c2cccc(NS(=O)(=O)c3cc(F)ccc3F)c2F)cc2c(N3CCOCC3)nc(-c3cnc(N)nc3)nc12` [Example 22, N-(3-(2-(2-aminopyrimidin-5-yl)-8-methoxy-4-morpholinoquinazolin-6-yl)-2-fluorophenyl)-2,5-difluorobenzenesulfonamide], for which the IC50 lay in the range of 1 to 100 nM on B-RAFV600E, 100 to 1000 nM against mTOR kinase, 1 to 100 nM in the test with pERK in A375 cells and 100 to 1000 nM in the test with A375 cells.
With `CCCS(=O)(=O)Nc1cccc(-c2cc(OC)c3nc(-c4ccc(NC(=O)NC)cc4)nc(N4CCOCC4)c3c2)c1F` [Example 14, N-(2-fluoro-3-(8-methoxy-2-(4-(3-methylureido)phenyl)-4-morpholinoquinazolin-6-yl)phenyl)propane-1-sulfonamide], the IC50 at B-RAFV600E lay within 100 to 1000 nM; at mTOR kinase, 1 to 100 nM; with pERK in A375 cells, 100 to 1000 nM; in the test on A375 cells, 100 to 1000 nM.
With `COc1cc(-c2cccc(NS(=O)(=O)CCCF)c2F)cc2c(N3CCOC[C@@H]3C)nc(-c3ccc(N)nc3)nc12` [Example 41, (S)-N-(3-(2-(6-aminopyridin-3-yl)-8-methoxy-4-(3-methylmorpholino)quinazolin-6-yl)-2-fluorophenyl)-3-fluoropropane-1-sulfonamide], the IC50 on B-RAFV600E lay in the range of 1 to 100 nM; against mTOR kinase, 1 to 100 nM; in the test with pERK in A375 cells, 1 to 100 nM; in the test with A375 cells, 100 to 1000 nM.
Consider `Nc1ccc(-c2nc(N3CCOCC3)c3cc(-c4cccc(NS(=O)(=O)CCCF)c4F)cc(N4CCCC4)c3n2)cn1` [Example 70, N-(3-(2-(6-aminopyridin-3-yl)-4-morpholino-8-(pyrrolidin-1-yl)quinazolin-6-yl)-2-fluorophenyl)-3-fluoropropane-1-sulfonamide], for which the IC50 at B-RAFV600E lay in the range of 1 to 100 nM; against mTOR kinase, 100 to 1000 nM; in the test with pERK in A375 cells, 100 to 1000 nM; with A375 cells, 1 to 100 nM.
Turning to `COc1cc(-c2cccc(NS(=O)(=O)CCCF)c2F)cc2c(N3CCOC[C@@H]3C)nc(-c3cnc(N)nc3)nc12` [Example 45, (S)-N-(3-(2-(2-aminopyrimidin-5-yl)-8-methoxy-4-(3-methylmorpholino)quinazolin-6-yl)-2-fluorophenyl)-3-fluoropropane-1-sulfonamide], the IC50 at B-RAFV600E, against mTOR kinase, in the test with pERK in A375 cells and in the test on A375 cells was 100 to 1000 nM in each case.
As to `COc1cc(-c2cccc(NS(=O)(=O)c3cc(F)ccc3F)c2F)cc2c(N3CCOCC3)nc(-c3ccc(N)nc3)nc12` [Example 28, N-(3-(2-(6-aminopyridin-3-yl)-8-methoxy-4-morpholinoquinazolin-6-yl)-2-fluorophenyl)-2,5-difluorobenzenesulfonamide], the IC50 on B-RAFV600E was in the range of 1 to 100 nM; at mTOR kinase, 100 to 1000 nM; in the test with pERK in A375 cells, 1 to 100 nM; with A375 cells, 100 to 1000 nM.
On to `COc1cc(-c2cccc(NS(=O)(=O)c3cccs3)c2F)cc2c(N3CCOCC3)nc(-c3ccc(N)nc3)nc12` [Example 38, N-(3-(2-(6-aminopyridin-3-yl)-8-methoxy-4-morpholinoquinazolin-6-yl)-2-fluorophenyl)thiophene-2-sulfonamide], for which the IC50 fell in the range of 1 to 100 nM at B-RAFV600E, 100 to 1000 nM on mTOR kinase, 1 to 100 nM in the test with pERK in A375 cells and 100 to 1000 nM in the test on A375 cells.
For `COc1cc(-c2c(F)ccc(NS(=O)(=O)c3c(F)cccc3F)c2F)cc2c(N3CCOCC3)nc(-c3cnc(N)nc3)nc12` [Example 76, N-(3-(2-(2-aminopyrimidin-5-yl)-8-methoxy-4-morpholinoquinazolin-6-yl)-2,4-difluorophenyl)-2,6-difluorobenzenesulfonamide], the IC50 was in the range of 1 to 100 nM on B-RAFV600E, 100 to 1000 nM against mTOR kinase, 100 to 1000 nM with pERK in A375 cells and 100 to 1000 nM in the test with A375 cells.
